Measured values: PMC4965013, “Open Source Drug Discovery with the Malaria Box Compound Collection for Neglected Diseases and Beyond” (PLoS Pathogens, 2016)

Tests used:
[1] = system: P. falciparum 3D7 trophozoites; test: Metabolomic fingerprint profiling LC-MS; format: cell-based, Plasmodium falciparum; set-up: UDP-D-glucose / ADP-D-glucose: unit not given here; settings: for Acetyllysine / N-acetyl-L-ornithine / N-carbamoyl-L-aspartate / NADPH / dAMP / dCMP / dTDP / dTMP / dTTP / dihydroorotate / orotate / DLH / DLS/SDL/SID / PD / PEE / PVNF / 3-phosphoglycerate / ADP-D-glucose / ATP / CDP / D-sedoheptulose-1/7-phosphate / FAD / GMP / NAD+ / NADP+ / Octoluse Bisphosphate / Pyroglutamic acid / UDP-D-glucose / UDP-D-glucuronate / UDP-N-acetyl-glucosamine / UDP / UMP / UTP / a-ketoglutarate / citrate/isocitrate / cytidine / dATP / dGMP/AMP / fumarate / glucose-1/6-phosphate / glycerate / guanine / guanosine / hypoxanthine / indole / inosine / nicotinate / ornithine / phosphoenolpyruvate / pyruvate / ribose-phosphate / sarcosine/alanine / sn-glycerol-3-phosphate / succinate/methylmalonic acid / uridine / xanthosine: S2 Table Metabolomics; for Acetyllysine: metabolite Acetyllysine; for N-acetyl-L-ornithine: metabolite N-acetyl-L-ornithine; for N-carbamoyl-L-aspartate: metabolite N-carbamoyl-L-aspartate; for NADPH: metabolite NADPH; for dAMP: metabolite dAMP; for dCMP: metabolite dCMP; for dTDP: metabolite dTDP; for dTMP: metabolite dTMP; for dTTP: metabolite dTTP; for dihydroorotate: metabolite dihydroorotate; for orotate: metabolite orotate; for DLH: peptide DLH; for DLS/SDL/SID: peptide DLS/SDL/SID; for PD: peptide PD; for PEE: peptide PEE; for PVNF: peptide PVNF; for 3-phosphoglycerate: metabolite 3-phosphoglycerate; for ADP-D-glucose: metabolite ADP-D-glucose; for ATP: metabolite ATP; for CDP: metabolite CDP; for CDP / D-sedoheptulose-1/7-phosphate / GMP / Octoluse Bisphosphate / UDP / UMP / UTP / citrate/isocitrate / dGMP/AMP / fumarate / glucose-1/6-phosphate / glycerate / guanine / guanosine / inosine / pyruvate / sarcosine/alanine / succinate/methylmalonic acid / uridine / xanthosine: change in metabolite level after compound treatment; for D-sedoheptulose-1/7-phosphate: metabolite D-sedoheptulose-1/7-phosphate; for FAD: metabolite FAD; for GMP: metabolite GMP; for NAD+: metabolite NAD+; for NADP+: metabolite NADP+; for Octoluse Bisphosphate: metabolite Octoluse Bisphosphate; for Pyroglutamic acid: metabolite Pyroglutamic acid; for UDP-D-glucose: metabolite UDP-D-glucose; for UDP-D-glucuronate: metabolite UDP-D-glucuronate; for UDP-N-acetyl-glucosamine: metabolite UDP-N-acetyl-glucosamine; for UDP: metabolite UDP; for UMP: metabolite UMP; for UTP: metabolite UTP; for a-ketoglutarate: metabolite a-ketoglutarate; for citrate/isocitrate: metabolite citrate/isocitrate; for cytidine: metabolite cytidine; for dATP: metabolite dATP; for dGMP/AMP: metabolite dGMP/AMP; for fumarate: metabolite fumarate; for glucose-1/6-phosphate: metabolite glucose-1/6-phosphate; for glycerate: metabolite glycerate; for guanine: metabolite guanine; for guanosine: metabolite guanosine; for hypoxanthine: metabolite hypoxanthine; for indole: metabolite indole; for inosine: metabolite inosine; for 2_3-Diphosphoglyceric acid / 4-phosphopantothenate / 6-phospho-D-gluconate / FMN / IMP / Pyrophosphate / Sedoheptoluse bisphosphate / cyclic-AMP / glutathione disulfide / lactate / myo-inositol: metabolite level change after treatment; for nicotinate: metabolite nicotinate; for ornithine: metabolite ornithine; for phosphoenolpyruvate: metabolite phosphoenolpyruvate; for pyruvate: metabolite pyruvate; for ribose-phosphate: metabolite ribose-phosphate; for sarcosine/alanine: metabolite sarcosine/alanine; for sn-glycerol-3-phosphate: metabolite sn-glycerol-3-phosphate; for succinate/methylmalonic acid: metabolite succinate/methylmalonic acid; for uridine: metabolite uridine; for xanthosine: metabolite xanthosine
[2] = system: P. falciparum; test: EC50 listed in S2 Table Metabolomics (used to set the concentration tested); format: cell-based; settings: Plasmodium falciparum; EC50 used for Factor_XEC50 in metabolomics; read-out: EC50_nM

## CCOC(=O)c1c(NC(=O)c2ccccc2)sc2c(O)c(CN(CC)CC)ccc12 [MMV665831]
[1]
  Acetyllysine: -3.559
  N-acetyl-L-ornithine: -2.775
  N-carbamoyl-L-aspartate: -1.992
  NADPH: 1.923
  dAMP: -1.503
  dCMP: -0.7769
  dTDP: -0.143
  dTMP: 0.09088
  dTTP: -0.5361
  dihydroorotate: -1.759
  orotate: -1.534
  DLH: -5.287
  DLS/SDL/SID: -4.31
  PD: -4.8541
  PEE: -3.834
  PVNF: -4.964
  3-phosphoglycerate: -0.2896
  ADP-D-glucose: -0.2463
  ATP: 0.0783
  CDP: 0.9119
  D-sedoheptulose-1/7-phosphate: 0.4987
  FAD: 0.1414
  GMP: -0.668
  NAD+: -0.0766
  NADP+: 0.2915
  Octoluse Bisphosphate: -0.5945
  Pyroglutamic acid: 0.1607
  UDP-D-glucose: 0.05295
  UDP-D-glucuronate: 0.02399
  UDP-N-acetyl-glucosamine: -0.03093
  UDP: 0.469
  UMP: -0.6472
  UTP: 0.04522
  a-ketoglutarate: -1.141
  citrate/isocitrate: 0.03995
  cytidine: 0.9734
  dATP: -0.7894
  dGMP/AMP: -0.1413
  fumarate: -1.268
  glucose-1/6-phosphate: -0.4706
  glycerate: -0.5026
  guanine: -0.4153
  guanosine: -0.8776
  hypoxanthine: -0.04834
  indole: -0.03305
  inosine: -0.4277
  2_3-Diphosphoglyceric acid: 0.2082
  4-phosphopantothenate: -0.594
  6-phospho-D-gluconate: -0.9918
  FMN: 0.1595
  IMP: -0.2597
  Pyrophosphate: -0.0001746
  Sedoheptoluse bisphosphate: -0.3963
  cyclic-AMP: -0.8626
  glutathione disulfide: -0.3472
  lactate: -0.3473
  myo-inositol: -0.3976
  nicotinate: -0.05954
  ornithine: -0.2486
  phosphoenolpyruvate: -0.1118
  pyruvate: -0.4191
  ribose-phosphate: -0.6703
  sarcosine/alanine: -1.233
  sn-glycerol-3-phosphate: -0.08824
  succinate/methylmalonic acid: -0.8852
  uridine: -0.3477
  xanthosine: -1.069
[2]
  EC50: 205 nM

## CCCc1cc(O)c2c3c(c(=O)oc2c1)CN(C)CC3 [MMV665841]
[1]
  Acetyllysine: -2.612
  N-acetyl-L-ornithine: -1.949
  N-carbamoyl-L-aspartate: -0.955
  NADPH: 0.07097
  dAMP: -0.5338
  dCMP: 0.378
  dTDP: -0.09857
  dTMP: -0.08494
  dTTP: 0.3392
  dihydroorotate: -0.7381
  orotate: -0.6991
  DLH: -2.223
  DLS/SDL/SID: -2.0523
  PD: -2.506
  PEE: -2.465
  PVNF: -2.267
  3-phosphoglycerate: 0.2411
  ADP-D-glucose: 0.03562
  ATP: 0.3706
  CDP: -0.1497
  D-sedoheptulose-1/7-phosphate: -0.0969
  FAD: 0.4757
  GMP: 0.7431
  NAD+: 0.1538
  NADP+: 0.3743
  Octoluse Bisphosphate: -0.2246
  Pyroglutamic acid: 0.8685
  UDP-D-glucose: 0.1781
  UDP-D-glucuronate: 0.2234
  UDP-N-acetyl-glucosamine: 0.1163
  UDP: -0.165
  UMP: 0.01879
  UTP: 0.1488
  a-ketoglutarate: -1.017
  citrate/isocitrate: -0.03416
  cytidine: 0.6575
  dATP: -0.1225
  dGMP/AMP: -0.03336
  fumarate: -0.991
  glucose-1/6-phosphate: 0.02998
  glycerate: -0.7467
  guanine: -0.195
  guanosine: -0.4835
  hypoxanthine: 0.1991
  indole: -0.2191
  inosine: 0.006205
  2_3-Diphosphoglyceric acid: 0.1243
  4-phosphopantothenate: -0.4271
  6-phospho-D-gluconate: -0.03292
  FMN: 0.1348
  IMP: -0.4143
  Pyrophosphate: 0.01603
  Sedoheptoluse bisphosphate: -0.2052
  cyclic-AMP: -0.23
  glutathione disulfide: -0.3848
  lactate: -0.3481
  myo-inositol: -0.7715
  nicotinate: -0.06082
  ornithine: -0.04541
  phosphoenolpyruvate: 0.2681
  pyruvate: -0.1725
  ribose-phosphate: -0.5158
  sarcosine/alanine: -1.291
  sn-glycerol-3-phosphate: -0.1021
  succinate/methylmalonic acid: -0.1585
  uridine: -0.2002
  xanthosine: -0.28
[2]
  EC50: 146 nM
